According to US20030228357A1, “Dry granulated formulations of azithromycin” (Pfizer Inc., priority 2002, published 2003):

Key:
Type in all cases: physicochemical
[1] = Tablet hardness, Schleuniger hardness tablet tester; details: DCP anhydrous; for Avg Hardness: Table 3C, low drug loading (35.2 wt % azithromycin), oval tablets, target weight 750 mg
Procedure: (§1) All four formulations were compressed on the compaction simulator using either 0.344″×0.688″ oval tooling, or ½″ standard round concave (SRC) tooling. The tablets were tested for hardness (kP scale), using a Schleuniger hardness tablet tester (Dr. Schleuniger Pharmatron AG, Solothurn, Switzerland), and for friability (100 rotations/4 minutes) using a Vanderkamp Friabulator Tablet Tester (Vankel, Cary, N.C., US).

[2] = Tablet friability, Vanderkamp Friabulator (100 rotations/4 minutes)
Procedure: Friability is a standard test known to one skilled in the art. Friability is measured under standardized conditions by weighing out a certain number of tablets (generally 20 tablets or less), placing them in a rotating Plexiglas drum in which they are lifted during replicate revolutions by a radial lever, and then dropped approximately 8 inches. After replicate revolutions (typically 100 revolutions at 25 rpm), the tablets are reweighed and the percentage of formulation abraded or chipped is calculated. The friability of the tablets, of the present invention, is preferably in the range of about 0% to 3%, and values about 1%, or less, are considered acceptable for most drug and food tablet contexts. Friability which approaches 0% is particularly preferred.
as §1

[3] = as above; remark: listed apart in the source
[4] = Density and Carr's Compressibility Index (flowability) of dry blends and dry granulations
Text: Carr's Compressibility Index was used to evaluate the flowability of the four dry granulations. Carr's Compressibility Index is a simple test to evaluate flowability by comparing both the initial and final (tapped) bulk volumes and the rate of packing down. A useful empirical guide to flow is given by Carr's compressibility index: Compressibility Index(%)=[(tapped density−initial density)/tapped density]×100 […] The procedure is described in Int. J. Pharm. Tech. & Prod. Mfr., 6(3) 10-16, 1985.

[5] = Tablet disintegration time, Automatic Disintegration Tester; details: Table 2A; Long blend; Oval tooling; distilled water at 37° C.
Procedure: The disintegration time was determined in distilled water at 37° C. using an Automatic Disintegration Tester (Model ZT72, Erweka USA Inc, Milford, Conn.) for the long blend tablets. Even with extensive blending times with magnesium stearate, reasonably short disintegration times of 15 and 20 seconds were obtained.

[6] = Tablet hardness, Schleuniger hardness tablet tester; details: for Avg Tablet Hardness: Table 4D, high drug loading, modified capsule shape; for Avg Tab Hardness: Short blend, Oval tooling
[7] = Slug (compact) hardness, Schleuniger hardness tablet tester
Text: A compaction simulator was used to compress the blends. The compaction simulator was designed as a single station tablet press in which the compression dwell time can be adjusted to simulate different types of tablet presses. All the formulations were slugged on the compaction simulator configured as the Kilian RX-67 press with a dwell time of 0.3145 seconds using […] round flat face tooling. The slugs were then comminuted using a Fitz mill with a 0.125″ screen with knives forward and run at slow speed. […] The slugs were tested for hardness (kP scale), using a Schleuniger hardness tablet tester (Dr. Schleuniger Pharmatron AG, Solothurn, Switzerland).

[8] = Indices of tableting performance (Hiestand) of bulk azithromycin; details: forms N, M, G, A milled, F and J unmilled
Procedure: Indices of tableting performance, for several azithromycin forms, were assessed to identify any mechanical deficiencies or attributes that may affect tablet formulation for these azithromycin forms. This assessment was performed in accordance with the procedures described in “Indices of Tableting, Performance” […] and D. P. Smith, Powder Technology 38 [1984] pp. 145-159. Specifically, the Brittle Fracture Index, BFI, was calculated from the ratio of a material's regular tensile strength to its compromised tensile strength. Strain Index, SI, was determined from the dynamic indentation hardness test. Worst Case Bonding Index was determined by assessing the extent of particle bonding remaining after decompression assuming a very short compression dwell time and a plastic mechanism of particle separation during decompression. Tableting Indices were determined for bulk azithromycin lots of six different crystalline forms, specifically forms N, M, G, A, F and J. Forms N, M and G were milled with a Fitzmill (Model JT, The Fitzpatrick Co., Elmhurst, Ill.) using a 0.027'' screen and knives at high speed in an attempt to match the smaller particle size of milled Form A. Unmilled forms F and J were evaluated “as is” due to their relatively small particle sizes.

[9] = 35.2 wt % azithromycin, dicalcium phosphate anhydrous diluent, Long blend method
[10] = 35.2 wt % azithromycin, dicalcium phosphate anhydrous diluent, Long blend method, slugged
[11] = Table 3A, low drug loading: 35.2 wt % azithromycin, 54.8 wt % dicalcium phosphate anhydrous, long blend
[12] = Table 4B, high drug loading (58.2 wt % azithromycin), diluent DCP, dihyd.
[13] = Table 5B, Explotab, 500 mgA, Oval, Precompression 3.5 kN
[14] = Table 5B, Explotab, 500 mgA, Oval, Precompression No
[15] = Table 5B, PVP-XL, 250 mgA, Modified Capsule, Precompression No
[16] = Table 5B, PVP-XL, 600 mgA, Modified Oval, Precompression No
[17] = Table 3D, high drug loading (58.2 wt % azithromycin), DCP anhydrous, modified capsule shape tablets, target weight 450 mg
[18] = Table 5B, Explotab, 250 mgA, Modified Capsule, Precompression No
[19] = Table 5B, PVP-XL, 600 mgA, Modified Oval, Precompression 1.5 kN
[20] = 35.2 wt % azithromycin, dicalcium phosphate anhydrous diluent, Short blend method
[21] = 35.2 wt % azithromycin, dicalcium phosphate anhydrous diluent, Short blend method, slugged
[22] = Table 4A, low drug loading (35.2 wt % azithromycin), diluent Lactose
[23] = Table 4B, high drug loading (58.2 wt % azithromycin), diluent Lactose
[24] = Table 5A, 58.2 wt % azithromycin, dicalcium phosphate dihydrate, disintegrant Explotab
[25] = Table 5A, 58.2 wt % azithromycin, dicalcium phosphate dihydrate, disintegrant PVP-XL
[26] = Table 7A, 55.76 wt % azithromycin, lactose anhydrous, corn starch, roller compaction 850 psi

With `CCC1OC(=O)C(C)C(O[C@H]2C[C@@](C)(OC)[C@@H](O)C(C)O2)C(C)[C@@H](OC2OC(C)CC(N(C)C)[C@H]2O)[C@@](C)(O)C[C@@H](C)CN(C)[C@H](C)[C@@H](O)[C@]1(C)O` (stereo partly drawn) [Form F, azithromycin monohydrate hemi-ethanol solvate] the “Avg Tablet Hardness” value ([1]; Table 2A, 35.2 wt % azithromycin, Long blend, Oval tooling, compression force 13.5 kN (A), 19 kN (F)) was 10.3 kP, the “Avg Hardness” value [1] was 10.3 kP and the Friability ([2]; Table 2A, 35.2 wt % azithromycin, DCP anhydrous, Long blend, Oval tooling) was 0.48%. For the same compound, the Friability ([2]; Table 3C, low drug loading (35.2 wt % azithromycin), DCP anhydrous, oval tablets, target weight 750 mg) was 0.48%, the Friability ([3]; Table 4D, high drug loading, diluent DCP, dihyd., modified capsule shape) was 0.31% and the “Dry Blend Carr's Index” value [4, 9] was 43%. For the same compound, the “Dry Blend density As Is” value [4, 9] was 0.50 g/cc, the “Dry Blend density Tapped” value [4, 9] was 0.88 g/cc and the “Granulation Carr's Index” value [4, 10] was 22%. For the same compound, the “Granulation Density As Is” value [4, 10] was 0.84 g/cc, the “Granulation Density Tapped” value [4, 10] was 1.07 g/cc and the “Granulation Carr's Index” value [4, 11] was 22%. For the same compound, the “Granulation Density As Is” value [4, 11] was 0.84 g/cc, the “Granulation Density Tapped” value [4, 11] was 1.08 g/cc and the “Dry Granulation Carr's Index” value [4, 12] was 27%. The “Dry Granulation Density As Is” value [4, 12] was 0.63 g/cc, the “Dry Granulation Density Tapped” value [4, 12] was 0.86 g/cc and the “Mean disintegration Time” value [5] was 20 s. The “Avg Tablet Hardness” value ([6]; diluent DCP, dihyd.) was 7.0 kP, the “Avg Slug Hardness” value [7, 9] was 22.4 kP and the “Avg Slug Hardness” value [7, 11] was 22 kP. The “Avg Slug Hardness” value [7, 12] was 9 kP, the “Brittle Fracture Index (BFI)” value [8] was 0.37 and the “Strain Index (SI)” value [8] was 0.0041. The “Tensile Strength” value [8] was 1.62 Mpa and the “Worst Case Bonding Index (BIw) × 10^2” value [8] was 0.9.

In the case of `CCC1OC(=O)C(C)C(O[C@H]2C[C@@](C)(OC)[C@@H](O)C(C)O2)C(C)[C@@H](OC2OC(C)CC(N(C)C)[C@H]2O)[C@@](C)(O)C[C@@H](C)CN(C)[C@H](C)[C@@H](O)[C@]1(C)O` (stereo partly drawn) [Form M, azithromycin monohydrate hemi-isopropanol solvate], the “Avg Hardness” value [1] is reported as 8.4 kP, the Friability ([2]; Table 2B Run 6, Short blend, Oval tooling, compression force 19.4 kN) is reported as “capped” and the Friability ([2]; Table 2B Run 7, Short blend, Oval tooling, compression force 14 kN) is reported as “capped”. It also gave a Friability ([2]; Table 4D, high drug loading, diluent Lactose, modified capsule shape) of 0.28%, a Friability [2, 13] of 0.50% and a Friability [2, 14] of 2.71%. The Friability [2, 15] was 0.25%, the Friability [2, 16] was 6.34% and the Friability [3, 17] was 0.45%. For the same compound, the Friability [3, 18] was 0.33%, the Friability [3, 19] was 0.34% and the “Dry Blend Carr's Index” value [4, 20] was 36%. The “Dry Blend density As Is” value [4, 20] was 0.68 g/cc, the “Dry Blend density Tapped” value [4, 20] was 1.08 g/cc and the “Granulation Carr's Index” value [4, 21] was 28%. For the same compound, the “Granulation Density As Is” value [4, 21] was 0.82 g/cc, the “Granulation Density Tapped” value [4, 21] was 1.14 g/cc and the “Granulation Carr's Index” value [4, 11] was 28%. The “Granulation Density As Is” value [4, 11] was 0.82 g/cc, the “Granulation Density Tapped” value [4, 11] was 1.14 g/cc and the “Dry Granulation Carr's Index” value [4, 22] was 30%. The “Dry Granulation Density As Is” value [4, 22] was 0.55 g/cc, the “Dry Granulation Density Tapped” value [4, 22] was 0.78 g/cc and the “Dry Granulation Carr's Index” value [4, 23] was 29%. For the same compound, the “Dry Granulation Density As Is” value [4, 23] was 0.53 g/cc, the “Dry Granulation Density Tapped” value [4, 23] was 0.75 g/cc and the “Dry Granulation Carr's Index” value [4, 24] was 26%. For the same compound, the “Dry Granulation Density As Is” value [4, 24] was 0.67 g/cc, the “Dry Granulation Density Tapped” value [4, 24] was 0.91 g/cc and the “Dry Granulation Carr's Index” value [4, 25] was 25%. The “Dry Granulation Density As Is” value [4, 25] was 0.63 g/cc, the “Dry Granulation Density Tapped” value [4, 25] was 0.84 g/cc and the “Dry Granulation Carr's Index” value [4, 26] was 24%. The “Dry Granulation Density As Is” value [4, 26] was 0.62 g/cc, the “Dry Granulation Density Tapped” value [4, 26] was 0.82 g/cc and the “Avg Tab Hardness” value ([6]; Table 2B Run 6, compression force 19.4 kN) was 8.4 kP. The “Avg Tab Hardness” value ([6]; Table 2B Run 7, compression force 14 kN) was 5.1 kP, the “Avg Hardness” value [6, 17] was 6.1 kP and the “Avg Tablet Hardness” value ([6]; diluent Lactose) was 5.8 kP. The “Avg Hardness” value [6, 18] was 4.5 kP, the “Avg Hardness” value [6, 13] was 7.4 kP and the “Avg Hardness” value [6, 14] was 5.6 kP. For the same compound, the “Avg Hardness” value [6, 15] was 4.9 kP, the “Avg Hardness” value [6, 19] was 9.2 kP and the “Avg Hardness” value [6, 16] was 4.2 kP. The “Avg Slug Hardness” value [7, 20] was 10.9 kP, the “Avg Slug Hardness” value [7, 11] was 11 kP and the “Avg Slug Hardness” value [7, 22] was 13 kP. The “Avg Slug Hardness” value [7, 23] was 11 kP, the “Avg Slug Hardness” value [7, 24] was 12 kP and the “Avg Slug Hardness” value [7, 25] was 13 kP. For the same compound, the “Brittle Fracture Index (BFI)” value [8] was 0.10, the “Strain Index (SI)” value [8] was 0.0048 and the “Tensile Strength” value [8] was 0.79 Mpa. The “Worst Case Bonding Index (BIw) × 10^2” value [8] was 1.0.
